Experimental findings from patent US20220145265A1, “IN VITRO EQUINE MODEL SYSTEMS AND THEIR INTEGRATION INTO HORSE-ON-A-CHIP PLATFORM” (University of Kentucky Research Foundation, priority 2020, published 2022) are described below.

A value given as a limit tells only on which side of the number the result lay.

Series [1] relates to cellular esterase(s). As to the kind of experiment: Ciclesonide pro-drug hydrolysis to des-CIC in equine airway (bronchioalveolar) organoid-derived transwells. In kind it is in vitro ADME. Conditions: 50 μM or 500 μM Ciclesonide, over time. The text has this: (§1) FIG. 10A-10E. Identification and quantification of Ciclesonide metabolites produced by equine airway and hepatic organoid-derived tissue systems. FIG. 10A includes the structure of Ciclesonide, which is a pro-drug that is metabolized in the lungs to the active form, desisobutyryl-Ciclesonide (des-CIC). FIG. 10B includes MS spectra showing representative fragmentation pattern of kinetic des-CIC conversion from CIC hydrolysis generated by equine bronchioalveolar organoid-derived transwells treated with pro-drug. FIGS. 10C-10D plot quantification of des-CIC metabolite produced by equine airway organoid-derived transwells treated with 50 μM (FIG. 10C) or 500 μM (FIG. 10D) Ciclesonide as a function of time. FIG. 10E plots quantification of des-CIC metabolite produced by equine hepatic organoid-derived transwells treated with 500 μM Ciclesonide as a function of time. […]
FIG. 10B, includes representative fragmentation pattern of kinetic des-CIC conversion from CIC hydrolysis generated by equine bronchioalveolar organoid-derived transwells treated with pro-drug. […] Quantification of des-CIC metabolite produced by equine airway organoid-derived transwells treated with 50 μM (FIG. 10C) or 500 μM (FIG. 10D) Ciclesonide over time. […]

The test system of series [2] is cellular esterase(s). As to the kind of experiment: Ciclesonide pro-drug hydrolysis to des-CIC in equine hepatic organoid-derived transwells. In kind it is in vitro ADME. Conditions: 500 μM Ciclesonide, over time.
From the text: as §1
Apical samples were obtained from the transwell upper chamber containing the bronchioalveolar tissue; basolateral samples were obtained from the lower transwell chamber containing untreated medium. FIG. 10E includes the results of quantification of des-CIC metabolite produced by equine hepatic organoid-derived transwells treated with 500 μM Ciclesonide. […]

Another series relates to CYP3A89. An excerpt:
FIG. 5A-51I. Development of an equine intestine-on-a-chip. FIG. 5A: Schematic representation of equine intestine-on-a-chip, including the top view of the Emulate chip (left), and a vertical slice (right) showing the epithelial channel (1, blue), the microvasculature channel (2, pink), and microchannels populated by organoid-derived intestinal epithelial cells (3) and endothelial cells (4), separated by flexible, porous membrane coated by extracellular matrices (5). FIG. 5B: Brightfield image of an equine intestine-chip cultured for 12 days in the presence of fluid flow and stretch (30 μl/h flow, 10% strain, 0.2 Hz). FIG. 5C: High magnification, phase contrast image of the intestinal epithelium channel depicted in b. […] FIG. 5E: Intestinal epithelium height measured in situ over a 400 μm section of the intestine-chip depicted in b. […] FIG. 5G: qPCR analysis of transcripts associated with intestine cell differentiation in organ-chips compared to 3D enteroid culture. (FIG. 5H: Testosterone conversion by epithelial CYP3A89 in equine intestine-chips was monitored by LC-MS/MS. Graph depicts the percent conversion of testosterone to 6-hydroxytestosterone at two concentrations. Scale bar represents 100 μm in panels 5B, 5C, 5D, and 5F. Schematic in 5A adapted and modified from Kasendra et al., eLife 2020.
Finally, studies were performed to evaluate the suitability of intestine chips for drug metabolism and CYP3A89 (CYP3A4 homolog (24)) induction. For these experiments, we inoculated testosterone into the inlet reservoir for the epithelial channel, flowed the testosterone-containing media through the chip at a rate of 30 μl/h, and collected samples from the effluent chambers from both the epithelial and vasculature channels.

Regarding `CC(C)C(=O)OCC(=O)[C@@]12O[C@H](C3CCCCC3)O[C@@H]1C[C@H]1[C@@H]3CCC4=CC(=O)C=C[C@]4(C)[C@H]3[C@@H](O)C[C@@]12C` [Ciclesonide], the “pro-drug hydrolysis to desisobutyryl-Ciclesonide (kinetics in words)” value in the series with cellular esterase(s) [1] was “rapid and linear”; with cellular esterase(s) [2], “rapid and linear”.

On to `C[C@]12CC[C@H]3[C@@H](CCC4=CC(=O)CC[C@@]43C)[C@@H]1CC[C@@H]2O` [testosterone], for which the “channel in which testosterone metabolites were detected” value in the series with CYP3A89 was “detected only in the epithelial channel effluent”. Also, the “time by which CYP3A89-mediated conversion of testosterone to 6-hydroxytestosterone was revealed” value in the series with CYP3A89 (equine intestine-chip, flow 30 μl/h, effluent samples, post-treatment) was not above 1 h. For the same compound, in the series with CYP3A89 (horse), the “time of peak testosterone metabolism” value was “roughly 3 h”.
